# Assay results from PubChem BioAssay AID1918948 (Molecular Pharmacology Branch, DTP, NCI, 2023).
# Tested on: K-562 leukemia growth, % test/control
# Assay: Anticancer human tumor K-562 cell line growth inhibition;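 further: spheroids exposed to compounds for 7 days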;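 on viability, T/C: 100% = DMSO vehicle wells and lower values mean fewer viable cells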
# Conditions: spheroids with HUVEC and MSC; for IC50: curve of first compound; for viability, T/C: stronger effect = lower value
# In short: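 Drug combinations with the LSD1 inhibitor iadademstat tested on tumor cells co-cultured as spheroids with endothelial cells and mesenchymal stem cells. Concentrations descended in half-log increments from clinical Cmax or 10 microM.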
# [1] = second compound 0.1 µM, first compound 0.0316 µM
# [2] = second compound 0.1 µM, first compound 0.1 µM
# [3] = second compound 0.316 µM, first compound 0.0316 µM
# [4] = second compound 0.316 µM, first compound 0.1 µM
# [5] = second compound 1 µM, first compound 0.0316 µM
# [6] = second compound 1 µM, first compound 0.1 µM
# [7] = second compound 3.16 µM, first compound 0.0316 µM
# [8] = second compound 3.16 µM, first compound 0.1 µM
# [9] = second compound 10 µM, first compound 0.0316 µM
# [10] = second compound 10 µM, first compound 0.1 µM
compound,measurement,setting,value
CC(C)CC(NC(=O)C(Cc1ccccc1)NC(=O)c1cnccn1)B(O)O (stereo not given) + NC1CCC(NC2CC2c2ccccc2)CC1,IC50,second compound 0.1 µM,1.9 nM
same,IC50,second compound 0.316 µM,1.94 nM
same,IC50,second compound 1 µM,1.95 nM
same,IC50,second compound 3.16 µM,1.77 nM
same,IC50,second compound 10 µM,0.977 nM
same,"viability, T/C","second compound 0.1 µM, first compound 0.000316 µM",99%
same,"viability, T/C","second compound 0.1 µM, first compound 0.001 µM",101%
same,"viability, T/C","second compound 0.1 µM, first compound 0.00316 µM",10.2%
same,"viability, T/C","second compound 0.1 µM, first compound 0.01 µM",2.14%
same,"viability, T/C",[1],1.84%
same,"viability, T/C",[2],0.67%
same,"viability, T/C","second compound 0.316 µM, first compound 0.000316 µM",99.3%
same,"viability, T/C","second compound 0.316 µM, first compound 0.001 µM",102%
same,"viability, T/C","second compound 0.316 µM, first compound 0.00316 µM",12.7%
same,"viability, T/C","second compound 0.316 µM, first compound 0.01 µM",2.31%
same,"viability, T/C",[3],0.86%
same,"viability, T/C",[4],2.09%
same,"viability, T/C","second compound 1 µM, first compound 0.000316 µM",104%
same,"viability, T/C","second compound 1 µM, first compound 0.001 µM",101%
same,"viability, T/C","second compound 1 µM, first compound 0.00316 µM",13.5%
same,"viability, T/C","second compound 1 µM, first compound 0.01 µM",1.19%
same,"viability, T/C",[5],1.68%
same,"viability, T/C",[6],1.1%
same,"viability, T/C","second compound 3.16 µM, first compound 0.000316 µM",105%
same,"viability, T/C","second compound 3.16 µM, first compound 0.001 µM",87.8%
same,"viability, T/C","second compound 3.16 µM, first compound 0.00316 µM",11.7%
same,"viability, T/C","second compound 3.16 µM, first compound 0.01 µM",1.18%
same,"viability, T/C",[7],2.66%
same,"viability, T/C",[8],0.99%
same,"viability, T/C","second compound 10 µM, first compound 0.000316 µM",97.1%
same,"viability, T/C","second compound 10 µM, first compound 0.001 µM",49%
same,"viability, T/C","second compound 10 µM, first compound 0.00316 µM",9.37%
same,"viability, T/C","second compound 10 µM, first compound 0.01 µM",1.01%
same,"viability, T/C",[9],0.67%
same,"viability, T/C",[10],1.77%
Nc1ccccc1NC(=O)c1ccc(CNC(=O)OCc2cccnc2)cc1 + NC1CCC(NC2CC2c2ccccc2)CC1,IC50,second compound 0.1 µM,274 nM
same,IC50,second compound 0.316 µM,325 nM
same,IC50,second compound 1 µM,280 nM
same,IC50,second compound 3.16 µM,225 nM
same,IC50,second compound 10 µM,75.5 nM
same,"viability, T/C","second compound 0.1 µM, first compound 0.00949 µM",106%
same,"viability, T/C","second compound 0.1 µM, first compound 0.03 µM",106%
same,"viability, T/C","second compound 0.1 µM, first compound 0.0949 µM",103%
same,"viability, T/C","second compound 0.1 µM, first compound 0.3 µM",45.5%
same,"viability, T/C","second compound 0.1 µM, first compound 0.949 µM",3.36%
same,"viability, T/C","second compound 0.1 µM, first compound 3 µM",0.18%
same,"viability, T/C","second compound 0.316 µM, first compound 0.00949 µM",107%
same,"viability, T/C","second compound 0.316 µM, first compound 0.03 µM",105%
same,"viability, T/C","second compound 0.316 µM, first compound 0.0949 µM",103%
same,"viability, T/C","second compound 0.316 µM, first compound 0.3 µM",53.5%
same,"viability, T/C","second compound 0.316 µM, first compound 0.949 µM",3.47%
same,"viability, T/C","second compound 0.316 µM, first compound 3 µM",0.16%
same,"viability, T/C","second compound 1 µM, first compound 0.00949 µM",106%
same,"viability, T/C","second compound 1 µM, first compound 0.03 µM",107%
same,"viability, T/C","second compound 1 µM, first compound 0.0949 µM",100%
same,"viability, T/C","second compound 1 µM, first compound 0.3 µM",46.9%
same,"viability, T/C","second compound 1 µM, first compound 0.949 µM",3.81%
same,"viability, T/C","second compound 1 µM, first compound 3 µM",0.17%
same,"viability, T/C","second compound 3.16 µM, first compound 0.00949 µM",105%
same,"viability, T/C","second compound 3.16 µM, first compound 0.03 µM",107%
same,"viability, T/C","second compound 3.16 µM, first compound 0.0949 µM",93.2%
same,"viability, T/C","second compound 3.16 µM, first compound 0.3 µM",35.6%
same,"viability, T/C","second compound 3.16 µM, first compound 0.949 µM",4.43%
same,"viability, T/C","second compound 3.16 µM, first compound 3 µM",1.18%
same,"viability, T/C","second compound 10 µM, first compound 0.00949 µM",92.5%
same,"viability, T/C","second compound 10 µM, first compound 0.03 µM",83.8%
same,"viability, T/C","second compound 10 µM, first compound 0.0949 µM",39.9%
same,"viability, T/C","second compound 10 µM, first compound 0.3 µM",14.1%
same,"viability, T/C","second compound 10 µM, first compound 0.949 µM",2.97%
same,"viability, T/C","second compound 10 µM, first compound 3 µM",0.24%
O=C(c1cc(Cc2n[nH]c(=O)c3ccccc23)ccc1F)N1CCN(C(=O)C2CC2)CC1 + NC1CCC(NC2CC2c2ccccc2)CC1,IC50,second compound 0.1 µM,> 10000 nM
same,IC50,second compound 0.316 µM,> 10000 nM
same,IC50,second compound 1 µM,> 10000 nM
same,IC50,second compound 3.16 µM,> 10000 nM
same,IC50,second compound 10 µM,> 10000 nM
same,"viability, T/C",[1],98.2%
same,"viability, T/C",[2],97.4%
same,"viability, T/C","second compound 0.1 µM, first compound 0.316 µM",96%
same,"viability, T/C","second compound 0.1 µM, first compound 1 µM",94.2%
same,"viability, T/C","second compound 0.1 µM, first compound 3.16 µM",82.7%
same,"viability, T/C","second compound 0.1 µM, first compound 10 µM",51.2%
same,"viability, T/C",[3],101%
same,"viability, T/C",[4],99.6%
same,"viability, T/C","second compound 0.316 µM, first compound 0.316 µM",98.6%
same,"viability, T/C","second compound 0.316 µM, first compound 1 µM",95%
same,"viability, T/C","second compound 0.316 µM, first compound 3.16 µM",83.2%
same,"viability, T/C","second compound 0.316 µM, first compound 10 µM",51.2%
same,"viability, T/C",[5],99.4%
same,"viability, T/C",[6],100%
same,"viability, T/C","second compound 1 µM, first compound 0.316 µM",98.3%
same,"viability, T/C","second compound 1 µM, first compound 1 µM",94.4%
same,"viability, T/C","second compound 1 µM, first compound 3.16 µM",85.6%
same,"viability, T/C","second compound 1 µM, first compound 10 µM",53.1%
same,"viability, T/C",[7],102%
same,"viability, T/C",[8],101%
same,"viability, T/C","second compound 3.16 µM, first compound 0.316 µM",98.2%
same,"viability, T/C","second compound 3.16 µM, first compound 1 µM",95%
same,"viability, T/C","second compound 3.16 µM, first compound 3.16 µM",84.8%
same,"viability, T/C","second compound 3.16 µM, first compound 10 µM",54.4%
same,"viability, T/C",[9],95.4%
same,"viability, T/C",[10],98.8%
same,"viability, T/C","second compound 10 µM, first compound 0.316 µM",98.5%
same,"viability, T/C","second compound 10 µM, first compound 1 µM",92.2%
same,"viability, T/C","second compound 10 µM, first compound 3.16 µM",81%
same,"viability, T/C","second compound 10 µM, first compound 10 µM",53.3%
